Assay results as given in patent US10538561B2, “Peptide for treating inflammatory diseases” (priority 2015, dated 2020).

How the values were obtained:
[1] = test system: Human endothelial cells (EA.hy 926); experiment: Tube formation in endothelial cells; format: cell-based; set-up: endothelial morphogenesis on matrigel: dose or concentration left out as unconfirmed; details: Ea.hy.926, 8 hours
Procedure: Cell lines: Human endothelial cells (EA.Hy 926); test item: IS 181; treatment regimen; multiple additions (2)—48 hours; concentration range: 100 6 g/ml to 5000 6 g/ml (Duplicate wells); sera condition: medium containing 1% FBS. Non-cytotoxic concentrations of IS 181 were determined using MTT assay. EA.hy926 cells were plated on ECMatrix solution. Cells were treated with IS 181 for 8 hours. Endothelial tubes were visualized under inverted light microscope at 40× magnification and images were captured. End point: visual pattern recognition and scoring of photomicrographs (FIGS. 11A-11G) based on Table-11 below: […]

[2] = Solution stability in diluents; format: physicochemical; details: 24 hours
Procedure: The solution stability of peptide IS 181 was performed in four different diluents at three different temperatures for 24 hours. Four different pre-formulations of concentration 10 mg/ml were prepared and formulation assay was performed at initial and […] at room temperature.

JAK3 = target: T1, JAK3 (Homo sapiens, UniProt P52333); experiment: Biochemical kinase assay JAK3
T1 sequence (P52333 1-1124): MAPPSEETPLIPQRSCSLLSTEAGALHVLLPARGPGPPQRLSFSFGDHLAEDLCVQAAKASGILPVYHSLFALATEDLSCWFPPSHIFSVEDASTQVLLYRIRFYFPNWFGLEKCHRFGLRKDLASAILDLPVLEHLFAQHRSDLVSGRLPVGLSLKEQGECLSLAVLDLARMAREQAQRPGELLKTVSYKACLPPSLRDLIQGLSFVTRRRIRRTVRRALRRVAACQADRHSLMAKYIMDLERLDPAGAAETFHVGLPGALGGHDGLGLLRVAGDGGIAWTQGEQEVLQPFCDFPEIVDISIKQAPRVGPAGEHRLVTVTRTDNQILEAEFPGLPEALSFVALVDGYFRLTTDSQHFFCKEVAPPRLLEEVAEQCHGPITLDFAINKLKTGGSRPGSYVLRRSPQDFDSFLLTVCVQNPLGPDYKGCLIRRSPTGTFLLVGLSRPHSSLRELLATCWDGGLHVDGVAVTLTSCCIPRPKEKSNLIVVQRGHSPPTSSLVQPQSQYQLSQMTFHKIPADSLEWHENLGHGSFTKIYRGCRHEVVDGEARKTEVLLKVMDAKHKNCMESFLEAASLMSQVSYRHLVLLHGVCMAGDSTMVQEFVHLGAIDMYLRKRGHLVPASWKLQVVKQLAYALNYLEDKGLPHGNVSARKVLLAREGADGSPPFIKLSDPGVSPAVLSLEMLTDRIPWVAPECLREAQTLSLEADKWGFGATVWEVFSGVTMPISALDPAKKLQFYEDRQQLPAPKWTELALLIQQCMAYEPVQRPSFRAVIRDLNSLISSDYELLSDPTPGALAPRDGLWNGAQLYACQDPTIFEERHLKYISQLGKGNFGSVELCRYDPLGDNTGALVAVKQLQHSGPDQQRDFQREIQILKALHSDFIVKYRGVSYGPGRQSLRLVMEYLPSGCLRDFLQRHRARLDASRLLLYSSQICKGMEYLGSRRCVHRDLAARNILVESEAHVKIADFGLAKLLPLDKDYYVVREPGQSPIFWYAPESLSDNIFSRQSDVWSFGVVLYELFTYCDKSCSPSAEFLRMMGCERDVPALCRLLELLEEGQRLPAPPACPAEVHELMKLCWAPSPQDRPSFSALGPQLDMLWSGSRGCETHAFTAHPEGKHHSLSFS
Procedure: (§1) Test system: cell free assays; test items: IS181; concentrations tested: 1 ng/ml-5000 μg/ml; Kinases: a) Cell free assays: EGFR (ErbB1); FLT1 (VEGFR1); JAK1; JAK3 MAP2K1 (MEK1); PDGFRA (PDGFR alpha); PRKCA (PKC alpha); b) cell based assay: JAK-STAT.

PRKCA (PKC alpha) = PRKCA (PKC alpha) (Homo sapiens, UniProt P17252); experiment: Biochemical kinase assay PRKCA
Procedure: as §1

IL-6 = experiment: LPS+PMA stimulated IL-6 secretion in HaCaT; format: cell-based, Human; details: 24 h
Procedure: Effect on pro-inflammatory cytokines against TNF-α/LPS+PMA stimulation: TNF-α; IFN-γ; TARC; TSLP; IL-6; IL-8: Cell lines: Human keratinocytes (HaCaT); test item (TI); IS181; experimental steps: pre-treatment of cells with TI for 2 hours; stimulation with TNF-α: 20 ng/ml; stimulation with LPS+PMA-10 μg/ml LPS+40 ng/ml PMA; supernatant collection for cytokine analysis after 24 hours; concentration range: 0.1 μg/ml-100 μg/ml (duplicate wells); cytokines: TNF-α; IFN-γ; TARC; TSLP; IL-6; IL-8. Method of estimating cytokines: ELISA; positive control: dexamethasone.
Cell line: HaCaT (Human Keratinocytes); TI Treatment regimen: Pretreatment for 2 h; TI Concentration range: 0.1 μg/ml-100 μg/ml (duplicate wells); TNF-α stimulation: 20 ng/ml; LPS+PMA stimulation: 10 μg/ml LPS+40 ng/ml PMA; Time point for supernatants collection: 24 h; Method of estimation: ELISA; Positive control: Dexamethasone

H-WVQRVVEKFLK-OH [IS181, H-Trp-Val-Gln-Arg-Val-Val-Glu-Lys-Phe-Leu-Lys-OH]
endothelial morphogenesis on matrigel [1]: Complete inhibition
endothelial tube formation ([1]; 1 6 g/ml to 1000 6 g/m/1): block endothelial tube formation
% Stability ([2]; 0.9% NaCl solution, 2-8° C.): 93.64%
% Stability ([2]; 0.9% NaCl solution, 37° C.): 104.94%
% Stability ([2]; 0.9% NaCl solution, Room Temperature): 101.84%
% Stability ([2]; Phosphate buffer pH 5.0, 2-8° C.): 96.53%
% Stability ([2]; Phosphate buffer pH 5.0, 37° C.): 104.05%
% Stability ([2]; Phosphate buffer pH 5.0, Room Temperature): 102.20%
% Stability ([2]; Phosphate buffer pH 7.4, 2-8° C.): 97.99%
% Stability ([2]; Phosphate buffer pH 7.4, 37° C.): 107.22%
% Stability ([2]; Phosphate buffer pH 7.4, Room Temperature): 102.41%
% Stability ([2]; Water, 2-8° C.): 94.66%
% Stability ([2]; Water, 37° C.): 98.57%
% Stability ([2]; Water, Room Temperature): 93.99%
inhibition at 10 µg/mL (JAK3; 10 μg/ml): 13%
inhibition at 50 µg/mL (JAK3; cell free, 50 μg/ml): 13%
inhibition at 100 µg/mL (JAK3; cell free, 100 μg/ml): -24%
inhibition at 250 µg/mL (JAK3; cell free, 250 μg/ml): -72%
inhibition at 500 µg/mL (JAK3; cell free, 500 μg/ml): -142%
inhibition at 1000 µg/mL (JAK3; cell free, 1000 μg/ml): -198%
inhibition at 10 µg/mL (PRKCA (PKC alpha); 10 μg/ml): 20%
inhibition at 50 µg/mL (PRKCA (PKC alpha); cell free, 50 μg/ml): 20%
inhibition at 100 µg/mL (PRKCA (PKC alpha); cell free, 100 μg/ml): 8%
inhibition at 250 µg/mL (PRKCA (PKC alpha); cell free, 250 μg/ml): -8%
inhibition at 500 µg/mL (PRKCA (PKC alpha); cell free, 500 μg/ml): -17%
inhibition at 1000 µg/mL (PRKCA (PKC alpha); cell free, 1000 μg/ml): -19%
inhibition at 2000 µg/mL (PRKCA (PKC alpha); cell free, 2000 μg/ml): -80%
IL-6 % decrease with respect to LPS + PMA (IL-6; 0.1 μg/ml): −58.3%
IL-6 Conc (IL-6; 0.1 μg/ml): 23.7 pg/mL
IL-6 % decrease with respect to LPS + PMA (IL-6; 1 μg/ml): −78.5%
IL-6 Conc (IL-6; 1 μg/ml): 26.7 pg/mL
IL-6 % decrease with respect to LPS + PMA (IL-6; 5 μg/ml): −56.5%
IL-6 Conc (IL-6; 5 μg/ml): 23.4 pg/mL
IL-6 % decrease with respect to LPS + PMA (IL-6; 10 μg/ml): −48.0%
IL-6 Conc (IL-6; 10 μg/ml): 22.1 pg/mL
IL-6 % decrease with respect to LPS + PMA (IL-6; 100 μg/ml): −160.6%
IL-6 Conc (IL-6; 100 μg/ml): 39.0 pg/mL
